Test results as given in patent US20230365592A1 (Agios Pharmaceuticals, Inc., priority 2022, published 2023).

These molecules were tested against T1, human PAH with the R408W mutation (Homo sapiens, UniProt P00439, R408W) (assay: Cell Based Phenylalanine Flux Assay). Settings: A375 cells expressing R408W PAH; 24 hrs with compound, then 20 µM sepiapterin and 800 µM 13C9,15N-Phenylalanine for 4 hours; 13C-Tyrosine by LC-MS; average where tested multiple times; read-out: AC50.
T1 construct: expressed in transfected cells
T1 sequence (P00439 1-452 R408W): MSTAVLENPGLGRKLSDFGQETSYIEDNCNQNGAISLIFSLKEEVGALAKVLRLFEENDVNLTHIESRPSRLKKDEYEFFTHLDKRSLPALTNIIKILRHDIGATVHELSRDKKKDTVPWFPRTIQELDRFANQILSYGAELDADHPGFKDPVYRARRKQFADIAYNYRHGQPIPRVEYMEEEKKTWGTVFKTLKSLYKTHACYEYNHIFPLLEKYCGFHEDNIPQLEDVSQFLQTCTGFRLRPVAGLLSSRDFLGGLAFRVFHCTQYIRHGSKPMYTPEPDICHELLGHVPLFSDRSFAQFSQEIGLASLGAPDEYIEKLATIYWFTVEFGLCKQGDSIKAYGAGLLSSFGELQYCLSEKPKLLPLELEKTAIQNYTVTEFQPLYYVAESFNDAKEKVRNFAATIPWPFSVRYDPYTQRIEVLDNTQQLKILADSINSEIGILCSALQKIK
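Also: after compound treatment, cells received sepiapterin plus isotope-labelled Phenylalanine for 4 hours, then labelled Tyrosine in the medium was quantified, 10-point 2-fold dilution series run in duplicate.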

| SMILES | AC50 |
| --- | --- |
| Nc1cnc(N2CCc3[nH]cnc3C2c2cc3cccc(C(F)(F)F)n3n2)nc1 (stereo not shown) | > 5 µM |
| Cc1nc(C(=O)N2CCc3[nH]cnc3C2c2cc3cccc(C(F)(F)F)n3n2)n(C)n1 (stereo not shown) | 1 to 5 µM |
| Cc1nnc(C(=O)N2CCc3[nH]cnc3[C@H]2c2cc3cccc(C(F)F)n3n2)o1 (single isomer, unassigned) | 1 to 5 µM |
| Cc1nc(C(C)(C)O)oc1C(=O)N1CCc2[nH]cnc2[C@H]1c1cc2ccccn2n1 (single isomer, unassigned) | 1 to 5 µM |
| Cc1cccn2nc(C3c4nc[nH]c4CCN3c3nnc(C(C)(C)F)o3)cc12 (stereo not shown) | > 5 µM |

Same assay, conditions: A375 cells expressing human PAH R408W; 24 hrs compound incubation; 13C-Tyrosine by LC-MS; average where tested multiple times; read-out: AC50

| SMILES | AC50 |
| --- | --- |
| FC(F)(F)Oc1cccn2nc([C@@H]3c4nc[nH]c4CCN3c3ccc(C(F)(F)F)cn3)cc12 [Example 2348, (S)-4-(4-(trifluoromethoxy)pyrazolo[1,5-a]pyridin-2-yl)-5-(5-(trifluoromethyl)pyridin-2-yl)-4,5,6,7-tetrahydro-1H-imidazo[4,5-c]pyridine] | 0.5 to 1 µM |
| CC(F)(F)c1nnc(N2CCc3[nH]cnc3[C@H]2c2cc3cccc(C(F)F)n3n2)o1 [Example 2523, (S)-2-(1,1-difluoroethyl)-5-(4-(7-(difluoromethyl)pyrazolo[1,5-a]pyridin-2-yl)-1,4,6,7-tetrahydro-5H-imidazo[4,5-c]pyridin-5-yl)-1,3,4-oxadiazole] | 1 to 5 µM |
| Cc1cc(C(=O)N2CCc3[nH]cnc3[C@H]2c2cc3c(F)cccn3n2)n(C)n1 [Example 2390, (S)-(1,3-dimethyl-1H-pyrazol-5-yl)(4-(4-fluoropyrazolo[1,5-a]pyridin-2-yl)-6,7-dihydro-1H-imidazo[4,5-c]pyridin-5(4H)-yl)methanone] | 1 to 5 µM |
| O=C(c1nnc(-c2cnccn2)o1)N1CCc2[nH]cnc2[C@@H]1c1cc2c(OC(F)F)cccn2n1 [Example 2449, (R)-(4-(4-(difluoromethoxy)pyrazolo[1,5-a]pyridin-2-yl)-6,7-dihydro-1H-imidazo[4,5-c]pyridin-5(4H)-yl)(5-(pyrazin-2-yl)-1,3,4-oxadiazol-2-yl)methanone] | > 5 µM |
| Cn1cc(-c2nnc(C(=O)N3CCc4[nH]cnc4[C@@H]3c3cc4ccccn4n3)s2)cn1 [Example 2044, (R)-(5-(1-methyl-1H-pyrazol-4-yl)-1,3,4-thiadiazol-2-yl)(4-(pyrazolo[1,5-a]pyridin-2-yl)-1,4,6,7-tetrahydro-5H-imidazo[4,5-c]pyridin-5-yl)methanone] | > 5 µM |
| O=C([C@@H]1CC1(F)F)N1CCc2[nH]cnc2[C@@H]1c1cc2c(F)cccn2n1 [Example 2031, ((S)-2,2-difluorocyclopropyl)((R)-4-(4-fluoropyrazolo[1,5-a]pyridin-2-yl)-1,4,6,7-tetrahydro-5H-imidazo[4,5-c]pyridin-5-yl)methanone] | 1 to 5 µM |
| Cc1ncccc1-c1nnc(N2CCc3[nH]cnc3[C@H]2c2cc3c(C(C)C)cccn3n2)o1 [Example 2234, (S)-2-(4-(4-isopropylpyrazolo[1,5-a]pyridin-2-yl)-1,4,6,7-tetrahydro-5H-imidazo[4,5-c]pyridin-5-yl)-5-(2-methylpyridin-3-yl)-1,3,4-oxadiazole] | 0.5 to 1 µM |

Same assay, conditions: A375 cells expressing human R408W PAH; 24 hrs compound incubation; 13C-Tyrosine by LC-MS; average where tested multiple times; read-out: AC50

| SMILES | AC50 |
| --- | --- |
| COc1cccn2nc([C@@H]3c4nc[nH]c4CCN3C(=O)c3nnc(C(C)(C)F)o3)cc12 [Example 971, (S)-(5-(2-fluoropropan-2-yl)-1,3,4-oxadiazol-2-yl)(4-(4-methoxypyrazolo[1,5-a]pyridin-2-yl)-6,7-dihydro-1H-imidazo[4,5-c]pyridin-5(4H)-yl)methanone] | 0.5 to 1 µM |
| O=C(c1nnc(-c2ccc(F)cn2)o1)N1CCc2[nH]cnc2[C@@H]1c1cc2c(F)cccn2n1 [Example 880, (R)-(4-(4-fluoropyrazolo[1,5-a]pyridin-2-yl)-6,7-dihydro-1H-imidazo[4,5-c]pyridin-5(4H)-yl)(5-(5-fluoropyridin-2-yl)-1,3,4-oxadiazol-2-yl)methanone] | > 5 µM |
| Cc1ncccc1-c1nnc(C(=O)N2CCc3[nH]cnc3[C@H]2c2cc3cccc(C(F)F)n3n2)o1 [Example 1500, (S)-(4-(7-(difluoromethyl)pyrazolo[1,5-a]pyridin-2-yl)-6,7-dihydro-1H-imidazo[4,5-c]pyridin-5(4H)-yl)(5-(2-methylpyridin-3-yl)-1,3,4-oxadiazol-2-yl)methanone] | < 0.5 µM |
| CC(C)(O)c1nc(C(F)F)c(C(=O)N2CCc3[nH]cnc3[C@@H]2c2cc3cccc(F)n3n2)o1 [Example 1239, (R)-(4-(difluoromethyl)-2-(2-hydroxypropan-2-yl)oxazol-5-yl)(4-(7-fluoropyrazolo[1,5-a]pyridin-2-yl)-6,7-dihydro-1H-imidazo[4,5-c]pyridin-5(4H)-yl)methanone] | 1 to 5 µM |
| Cc1ncccc1-c1nnc(C(=O)N2CCc3[nH]cnc3[C@H]2c2cc3cccc(C(F)(F)F)n3n2)o1 [Example 1342, (S)-(5-(2-methylpyridin-3-yl)-1,3,4-oxadiazol-2-yl)(4-(7-(trifluoromethyl)pyrazolo[1,5-a]pyridin-2-yl)-6,7-dihydro-1H-imidazo[4,5-c]pyridin-5(4H)-yl)methanone] | 0.5 to 1 µM |
| CC(C)(O)c1nc(C(F)F)c(C(=O)N2CCc3[nH]cnc3[C@H]2c2cc3cccc(F)n3n2)o1 [Example 1238, (S)-(4-(difluoromethyl)-2-(2-hydroxypropan-2-yl)oxazol-5-yl)(4-(7-fluoropyrazolo[1,5-a]pyridin-2-yl)-6,7-dihydro-1H-imidazo[4,5-c]pyridin-5(4H)-yl)methanone] | < 0.5 µM |
| O=C(c1ocnc1C(F)F)N1CCc2[nH]cnc2[C@@H]1c1cc2cccc(F)n2n1 [Example 1203, (R)-(4-(difluoromethyl)oxazol-5-yl)(4-(7-fluoropyrazolo[1,5-a]pyridin-2-yl)-6,7-dihydro-1H-imidazo[4,5-c]pyridin-5(4H)-yl)methanone] | 1 to 5 µM |
| COc1ccc2c(C(=O)N3CCc4[nH]cnc4[C@H]3c3cc4c(F)cccn4n3)cnn2c1 [Example 1696, (S)-(4-(4-fluoropyrazolo[1,5-a]pyridin-2-yl)-6,7-dihydro-1H-imidazo[4,5-c]pyridin-5(4H)-yl)(6-methoxypyrazolo[1,5-a]pyridin-3-yl)methanone] | 0.5 to 1 µM |
| Cc1c(-c2nnc(C(=O)N3CCc4[nH]cnc4[C@@H]3c3cc4c(Cl)cccn4n3)o2)cnn1C [Example 1215, (R)-(4-(4-chloropyrazolo[1,5-a]pyridin-2-yl)-6,7-dihydro-1H-imidazo[4,5-c]pyridin-5(4H)-yl)(5-(1,5-dimethyl-1H-pyrazol-4-yl)-1,3,4-oxadiazol-2-yl)methanone] | > 5 µM |
| Cc1cccn2nc([C@@H]3c4nc[nH]c4CCN3C(=O)c3ccnn3C3CC3)cc12 [Example 860, (S)-(1-cyclopropyl-1H-pyrazol-5-yl)(4-(4-methylpyrazolo[1,5-a]pyridin-2-yl)-6,7-dihydro-1H-imidazo[4,5-c]pyridin-5(4H)-yl)methanone] | < 0.5 µM |
| O=C(c1nnc(-c2cnn(C(F)F)c2)o1)N1CCc2[nH]cnc2[C@@H]1c1cc2c(C(F)(F)F)cccn2n1 [Example 907, (R)-(5-(1-(difluoromethyl)-1H-pyrazol-4-yl)-1,3,4-oxadiazol-2-yl)(4-(4-(trifluoromethyl)pyrazolo[1,5-a]pyridin-2-yl)-6,7-dihydro-1H-imidazo[4,5-c]pyridin-5(4H)-yl)methanone] | > 5 µM |
| O=C(c1cnn2cc(C3CC3)ccc12)N1CCc2[nH]cnc2[C@@H]1c1cc2cccc(F)n2n1 [Example 1791, (R)-(6-cyclopropylpyrazolo[1,5-a]pyridin-3-yl)(4-(7-fluoropyrazolo[1,5-a]pyridin-2-yl)-6,7-dihydro-1H-imidazo[4,5-c]pyridin-5(4H)-yl)methanone] | > 5 µM |
| CC(C)(C)c1nnc(C(=O)N2CCc3[nH]cnc3[C@@H]2c2cc3c(C(F)(F)F)cccn3n2)o1 [Example 949, (R)-(5-(tert-butyl)-1,3,4-oxadiazol-2-yl)(4-(4-(trifluoromethyl)pyrazolo[1,5-a]pyridin-2-yl)-6,7-dihydro-1H-imidazo[4,5-c]pyridin-5(4H)-yl)methanone] | 1 to 5 µM |
| Cn1cc(-c2nnc(C(=O)N3CCc4[nH]cnc4[C@H]3c3cc4cccc(C(F)(F)F)n4n3)o2)cn1 [Example 952, (S)-(5-(1-methyl-1H-pyrazol-4-yl)-1,3,4-oxadiazol-2-yl)(4-(7-(trifluoromethyl)pyrazolo[1,5-a]pyridin-2-yl)-6,7-dihydro-1H-imidazo[4,5-c]pyridin-5(4H)-yl)methanone] | 0.5 to 1 µM |
| O=C(c1nnc(C2CC2)o1)N1CCc2[nH]cnc2[C@@H]1c1cc2c(F)cccn2n1 [Example 947, (R)-(5-cyclopropyl-1,3,4-oxadiazol-2-yl)(4-(4-fluoropyrazolo[1,5-a]pyridin-2-yl)-6,7-dihydro-1H-imidazo[4,5-c]pyridin-5(4H)-yl)methanone] | > 5 µM |
| CC(C)(O)c1nc(C(F)(F)F)c(C(=O)N2CCc3[nH]cnc3[C@@H]2c2cc3c(F)cccn3n2)o1 [Example 745, (R)-(4-(4-fluoropyrazolo[1,5-a]pyridin-2-yl)-6,7-dihydro-1H-imidazo[4,5-c]pyridin-5(4H)-yl)(2-(2-hydroxypropan-2-yl)-4-(trifluoromethyl)oxazol-5-yl)methanone] | 1 to 5 µM |
